Reference: paper PMC7937321 (Genes and Environment, 2021)
Where two headings read alike, the source gives them in different places.

Tests used:
[1] = system: TA1538, TA100, TA98, TA97, TA1535; details: cited from earlier work
TK6 cells = experiment: Cytotoxicity in the TK6 assay (CE, RS, RSG, RTG); details: for RS: graph data
[2] = 24 h treatment, -S9 mix, 173.70 μg/mL
[3] = 24 h treatment, -S9 mix, 277.90 μg/mL
[4] = 24 h treatment, -S9 mix, 444.70 μg/mL
[5] = 24 h treatment, -S9 mix, 711.5 μg/mL
[6] = 24 h treatment, -S9 mix, 1138.4 μg/mL
[7] = 24 h treatment, -S9 mix, 1821.4 μg/mL
[8] = Short treatment, +S9 mix, dose 173.7 μg/mL
[9] = Short treatment, +S9 mix, dose 277.9 μg/mL
[10] = Short treatment, +S9 mix, dose 445 μg/mL
[11] = Short treatment, +S9 mix, dose 712 μg/mL
[12] = Short treatment, +S9 mix, dose 1138 μg/mL
[13] = Short treatment, +S9 mix, dose 1821 μg/mL
[14] = Short treatment, -S9 mix, dose 173.70 μg/mL
[15] = Short treatment, -S9 mix, dose 277.90 μg/mL
[16] = Short treatment, -S9 mix, dose 444.70 μg/mL
[17] = Short treatment, -S9 mix, dose 711.5 μg/mL
[18] = Short treatment, -S9 mix, dose 1138.4 μg/mL
[19] = Short treatment, -S9 mix, dose 1821.4 μg/mL

For `Nc1cc([N+](=O)[O-])ccc1C(=O)O` [4-Nitroanthranilic acid], the “The Highest Specific Activity and the Strain” value ([1]; TA100 with S9, ref Table 2) is given as 2830 revertants/mg, the “The Highest Specific Activity and the Strain” value ([1]; TA1535 with S9, ref [33]) is given as 3600 revertants/mg and the “Bacterial reverse mutation assay, With S9” value ([1]; with S9, ref [18]-[40], Table 2) is given as “Pos”. The “Bacterial reverse mutation assay, Without S9” value ([1]; without S9, ref [18]-[40], Table 2) was “Pos”, the cytotoxicity (TK6 cells; 1138 μg/mL, short-term without metabolic activation) was “More than 50%” and the cytotoxicity (TK6 cells; 1821 μg/mL, long-term treatment) was “More than 80%”. For the same molecule, the cytotoxicity (TK6 cells; 1821 μg/mL, short-term with metabolic activation) was “approximately 100%”, the cytotoxicity (TK6 cells; 1821 μg/mL, short-term without metabolic activation) was “More than 50%” and the “Adjusted CE0(%)” value (TK6 cells; [2]) was 111.3%. For the same molecule, the “RS0 (%)” value (TK6 cells; [2]) was 133.0%, the RSG (TK6 cells; [2]) was 1.273 and the “Adjusted CE0(%)” value (TK6 cells; [3]) was 40.4%. The “RS0 (%)” value (TK6 cells; [3]) was 48.3%, the RSG (TK6 cells; [3]) was 0.978 and the “Adjusted CE0(%)” value (TK6 cells; [4]) was 71.5%. The “RS0 (%)” value (TK6 cells; [4]) was 85.4%, the RSG (TK6 cells; [4]) was 1.146 and the “Adjusted CE0(%)” value (TK6 cells; [5]) was 49.4%. For the same molecule, the “RS0 (%)” value (TK6 cells; [5]) was 59.0%, the RSG (TK6 cells; [5]) was 1.081 and the “Adjusted CE0(%)” value (TK6 cells; [6]) was 26.6%. For the same molecule, the “RS0 (%)” value (TK6 cells; [6]) was 31.8%, the RSG (TK6 cells; [6]) was 0.835 and the “Adjusted CE0(%)” value (TK6 cells; [7]) was 14.0%. The “RS0 (%)” value (TK6 cells; [7]) was 16.7%, the RSG (TK6 cells; [7]) was 0.892 and the “Adjusted CE0(%)” value (TK6 cells; [8]) was 84.1%. For the same molecule, the “RS0 (%)” value (TK6 cells; [8]) was 71.1%, the RSG (TK6 cells; [8]) was 1.078 and the “Adjusted CE0(%)” value (TK6 cells; [9]) was 107.8%. The “RS0 (%)” value (TK6 cells; [9]) was 91.1%, the RSG (TK6 cells; [9]) was 0.902 and the “Adjusted CE0(%)” value (TK6 cells; [10]) was 58.9%. For the same molecule, the “RS0 (%)” value (TK6 cells; [10]) was 49.8%, the RSG (TK6 cells; [10]) was 0.653 and the “Adjusted CE0(%)” value (TK6 cells; [11]) was 79.3%. The “RS0 (%)” value (TK6 cells; [11]) was 67.0%, the RSG (TK6 cells; [11]) was 0.824 and the “Adjusted CE0(%)” value (TK6 cells; [12]) was 96.3%. The “RS0 (%)” value (TK6 cells; [12]) was 81.4%, the RSG (TK6 cells; [12]) was 0.854 and the “Adjusted CE0(%)” value (TK6 cells; [13]) was 3.0%. For the same molecule, the “RS0 (%)” value (TK6 cells; [13]) was 2.6%, the RSG (TK6 cells; [13]) was 0.036 and the “Adjusted CE0(%)” value (TK6 cells; [14]) was 132.4%. For the same molecule, the “RS0 (%)” value (TK6 cells; [14]) was 186.4%, the RSG (TK6 cells; [14]) was 1.135 and the “Adjusted CE0(%)” value (TK6 cells; [15]) was 61.6%. The “RS0 (%)” value (TK6 cells; [15]) was 86.8%, the RSG (TK6 cells; [15]) was 0.893 and the “Adjusted CE0(%)” value (TK6 cells; [16]) was 84.7%. The “RS0 (%)” value (TK6 cells; [16]) was 119.3%, the RSG (TK6 cells; [16]) was 0.880 and the “Adjusted CE0(%)” value (TK6 cells; [17]) was 60.6%. For the same molecule, the “RS0 (%)” value (TK6 cells; [17]) was 85.4%, the RSG (TK6 cells; [17]) was 0.786 and the “Adjusted CE0(%)” value (TK6 cells; [18]) was 33.1%. For the same molecule, the “RS0 (%)” value (TK6 cells; [18]) was 46.6%, the RSG (TK6 cells; [18]) was 0.678 and the “Adjusted CE0(%)” value (TK6 cells; [19]) was 22.9%. For the same molecule, the “RS0 (%)” value (TK6 cells; [19]) was 32.3%, the RSG (TK6 cells; [19]) was 0.302 and the CE3 (TK6 cells; as fraction in mutation frequency table, 24 h treatment, -S9 mix, 173.70 μg/mL) was 0.841. For the same molecule, the CE3 (TK6 cells; as fraction in mutation frequency table, 24 h treatment, -S9 mix, 277.90 μg/mL) was 0.841, the CE3 (TK6 cells; as fraction in mutation frequency table, 24 h treatment, -S9 mix, 444.70 μg/mL) was 0.793 and the CE3 (TK6 cells; as fraction in mutation frequency table, 24 h treatment, -S9 mix, 711.5 μg/mL) was 0.687. The CE3 (TK6 cells; as fraction in mutation frequency table, 24 h treatment, -S9 mix, 1138.4 μg/mL) was 0.950, the CE3 (TK6 cells; as fraction in mutation frequency table, 24 h treatment, -S9 mix, 1821.4 μg/mL) was 0.433 and the CE3 (TK6 cells; as fraction, mutation frequency table, Short treatment, +S9 mix, dose 173.7 μg/mL) was 0.706. The CE3 (TK6 cells; as fraction, mutation frequency table, Short treatment, +S9 mix, dose 277.9 μg/mL) was 0.667, the CE3 (TK6 cells; as fraction, mutation frequency table, Short treatment, +S9 mix, dose 445 μg/mL) was 0.816 and the CE3 (TK6 cells; as fraction, mutation frequency table, Short treatment, +S9 mix, dose 712 μg/mL) was 0.980. It also gave a CE3 (TK6 cells; as fraction, mutation frequency table, Short treatment, +S9 mix, dose 1138 μg/mL) of 0.841, a CE3 (TK6 cells; as fraction, mutation frequency table, Short treatment, +S9 mix, dose 1821 μg/mL) of 0.446 and a CE3 (TK6 cells; as fraction, mutation frequency table, Short treatment, -S9 mix, dose 173.70 μg/mL) of 0.893. The CE3 (TK6 cells; as fraction, mutation frequency table, Short treatment, -S9 mix, dose 277.90 μg/mL) was 0.770, the CE3 (TK6 cells; as fraction, mutation frequency table, Short treatment, -S9 mix, dose 444.70 μg/mL) was 1.046 and the CE3 (TK6 cells; as fraction, mutation frequency table, Short treatment, -S9 mix, dose 711.5 μg/mL) was 1.012. For the same molecule, the CE3 (TK6 cells; as fraction, mutation frequency table, Short treatment, -S9 mix, dose 1138.4 μg/mL) was 0.950, the CE3 (TK6 cells; as fraction, mutation frequency table, Short treatment, -S9 mix, dose 1821.4 μg/mL) was 1.046 and the RS (TK6 cells; 24 h, -S9 mix, 173.70 μg/mL) was 133.0. The RS (TK6 cells; 24 h, -S9 mix, 277.90 μg/mL) was 48.3, the RS (TK6 cells; 24 h, -S9 mix, 444.70 μg/mL) was 85.4 and the RS (TK6 cells; 24 h, -S9 mix, 711.5 μg/mL) was 59.0. The RS (TK6 cells; 24 h, -S9 mix, 1138.4 μg/mL) was 31.8, the RS (TK6 cells; 24 h, -S9 mix, 1821.4 μg/mL) was 16.7 and the RS (TK6 cells; [8]) was 71.1. It also gave an RS (TK6 cells; [9]) of 91.1, an RS (TK6 cells; [10]) of 49.8 and an RS (TK6 cells; [11]) of 67.0. The RS (TK6 cells; [12]) was 81.4, the RS (TK6 cells; [13]) was 2.6 and the RS (TK6 cells; [14]) was 186.4. The RS (TK6 cells; [15]) was 86.8, the RS (TK6 cells; [16]) was 119.3 and the RS (TK6 cells; [17]) was 85.4. For the same molecule, the RS (TK6 cells; [18]) was 46.6 and the RS (TK6 cells; [19]) was 32.3.
